Measurements: article PMC2678238 (Journal of biological inorganic chemistry : JBIC : a …, 2009)
Read-outs that look alike come from different tables or passages of the source.

Experiments:
Co(II)-loaded PfMetAP-II [1] = target: T1, Co(II)-loaded PfMetAP-II (Pyrococcus furiosus, UniProt P56218); assay: Enzymatic assay of MetAP; assay type: biochemical
Co(II)-loaded EcMetAP-I [2] = target: T2, Co(II)-loaded EcMetAP-I (Escherichia coli, UniProt P0AE18); assay: Enzymatic assay of MetAP; assay type: biochemical
T2 sequence (P0AE18 whole entry): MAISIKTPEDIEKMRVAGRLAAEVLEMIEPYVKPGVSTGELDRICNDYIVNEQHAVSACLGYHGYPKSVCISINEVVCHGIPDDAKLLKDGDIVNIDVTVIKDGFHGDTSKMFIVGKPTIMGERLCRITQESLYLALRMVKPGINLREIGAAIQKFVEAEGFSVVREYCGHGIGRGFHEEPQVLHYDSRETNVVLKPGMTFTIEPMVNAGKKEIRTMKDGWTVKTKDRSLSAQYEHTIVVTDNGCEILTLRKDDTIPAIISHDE

Co(II)-loaded PfMetAP-II [3] = target: T1, Co(II)-loaded PfMetAP-II; assay: Isothermal titration calorimetry; assay type: binding; details: for n (stoichiometry): ITC fit; for TΔS / ΔG: from ITC via Gibbs relationship
Mn(II)-loaded PfMetAP-II [4] = target: T3, Mn(II)-loaded PfMetAP-II (Pyrococcus furiosus, UniProt P56218); assay: Isothermal titration calorimetry; assay type: binding; details: for fold stronger binding (Kd) to Co(II)-loaded than Mn(II)-loaded PfMetAP-II: ITC Kd Mn(II)-loaded vs Co(II)-loaded PfMetAP-II; for n (stoichiometry): ITC fit
T3 sequence (P56218 whole entry): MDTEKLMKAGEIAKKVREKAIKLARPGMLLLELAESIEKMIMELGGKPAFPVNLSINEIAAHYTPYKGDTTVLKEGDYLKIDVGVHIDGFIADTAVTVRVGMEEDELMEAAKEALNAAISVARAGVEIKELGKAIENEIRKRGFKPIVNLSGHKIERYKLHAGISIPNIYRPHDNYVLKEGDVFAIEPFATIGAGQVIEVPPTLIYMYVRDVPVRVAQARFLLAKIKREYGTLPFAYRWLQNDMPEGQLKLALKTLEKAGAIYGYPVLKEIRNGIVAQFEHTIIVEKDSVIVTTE

Co(II)-loaded EcMetAP-I [5] = target: T2, Co(II)-loaded EcMetAP-I; assay: Isothermal titration calorimetry; assay type: binding; details: for n (stoichiometry): ITC fit; for TΔS / ΔG: from ITC via Gibbs relationship
Mn(II)-loaded EcMetAP-I [6] = target: T4, Mn(II)-loaded EcMetAP-I (Escherichia coli, UniProt P0AE18); assay: Isothermal titration calorimetry; assay type: binding; details: for fold stronger binding (Kd) to Co(II)-loaded than Mn(II)-loaded EcMetAP-I: ITC Kd Mn(II)-loaded vs Co(II)-loaded EcMetAP-I; for n (stoichiometry): ITC fit
T4 sequence (P0AE18 whole entry): as the sequence (P0AE18 whole entry) above

Co(II)-loaded HsMetAP-II = details: in words; cited from earlier work
Mn(II)-loaded HsMetAP-II = details: in words; cited from earlier work
Mn(II)-loaded PfMetAP-II [7] = target: T3, Mn(II)-loaded PfMetAP-II; assay: Enzymatic assay of MetAP; assay type: biochemical
Mn(II)-loaded EcMetAP-I [8] = target: T4, Mn(II)-loaded EcMetAP-I; assay: Enzymatic assay of MetAP; assay type: biochemical
[9] = [MnMn(PfMetAP-II)], from ITC via Gibbs relationship
[10] = [MnMn(EcMetAP-I)], from ITC via Gibbs relationship

T1 sequence (P56218 whole entry): as the sequence (P56218 whole entry) above

| SMILES | n (stoichiometry) (Co(II)-loaded PfMetAP-II [3]; [CoCo(PfMetAP-II)]) | TΔS (Co(II)-loaded PfMetAP-II [3]; [CoCo(PfMetAP-II)]) [kcal/mol] | ΔG (Co(II)-loaded PfMetAP-II [3]; [CoCo(PfMetAP-II)]) [kcal/mol] | fold stronger binding (Kd) to Co(II)-loaded than Mn(II)-loaded PfMetAP-II (Mn(II)-loaded PfMetAP-II [4]) | n (stoichiometry) (Mn(II)-loaded PfMetAP-II [4]; [MnMn(PfMetAP-II)]) | ΔG (Mn(II)-loaded PfMetAP-II [4]; [9]) [kcal/mol] | n (stoichiometry) (Co(II)-loaded EcMetAP-I [5]; [CoCo(EcMetAP-I)]) | TΔS (Co(II)-loaded EcMetAP-I [5]; [CoCo(EcMetAP-I)]) [kcal/mol] | ΔG (Co(II)-loaded EcMetAP-I [5]; [CoCo(EcMetAP-I)]) [kcal/mol] | fold stronger binding (Kd) to Co(II)-loaded than Mn(II)-loaded EcMetAP-I (Mn(II)-loaded EcMetAP-I [6]) | n (stoichiometry) (Mn(II)-loaded EcMetAP-I [6]; [MnMn(EcMetAP-I)]) | ΔG (Mn(II)-loaded EcMetAP-I [6]; [10]) [kcal/mol] | inhibition of Co(II)-loaded HsMetAP-II (Co(II)-loaded HsMetAP-II) | also measured |
| --- | --- | --- | --- | --- | --- | --- | --- | --- | --- | --- | --- | --- | --- | --- |
| CCSCC[C@@H](N)C(O)C(=O)N[C@@H](C)c1cccc2ccccc12 (mixture of isomers) [A-311263, ((2RS,3R)-3-amino-2-hydroxy-5-ethylthio)pentanoyl-((S)-(−)-(1-naphthyl)ethyl)amide] | 1 | 5.02 | -8.65 | approximately 58 fold | 1 | -6.24 | 1 | 7.89 | -7.65 | approximately 21 fold | 1 | -5.86 | equally well | Ki (Co(II)-loaded PfMetAP-II [1]; [CoCo(PfMetAP-II)], competitive inhibition fit, substrate MGMM): 2 µM; Ki (Co(II)-loaded EcMetAP-I [2]; [CoCo(EcMetAP-I)], competitive inhibition fit, substrate MGMM): 3 µM; Kd (Co(II)-loaded PfMetAP-II [3]; [CoCo(PfMetAP-II)], ITC, 25.0 °C, HEPES pH 7.5): 0.45 ± 0.11 µM; Kd (Mn(II)-loaded PfMetAP-II [4]; [MnMn(PfMetAP-II)], ITC, 25.0 °C, HEPES pH 7.5): 26 ± 5 µM; Kd (Co(II)-loaded EcMetAP-I [5]; [CoCo(EcMetAP-I)], ITC, 25.0 °C, HEPES pH 7.5): 2.4 ± 0.1 µM; Kd (Mn(II)-loaded EcMetAP-I [6]; [MnMn(EcMetAP-I)], ITC, 25.0 °C, HEPES pH 7.5): 50 ± 5 µM; TΔS (Mn(II)-loaded EcMetAP-I [6]; [10]): 1.4 kcal/mol; inhibition of Mn(II)-loaded HsMetAP-II (Mn(II)-loaded HsMetAP-II): equally well |
| c1ccc2cc(CSc3nnc[nH]3)ccc2c1 [A-310840, 3-((2-naphthylmethyl)sulfanyl)-4H-1,2,4-triazole] | 1 | 6.45 | -7.77 | approximately 333 fold | 1 | -4.33 | 1 | 4.78 | -6.81 | approximately 71 fold | 1 | -4.28 | strongly inhibits | IC50 (Co(II)-loaded PfMetAP-II [1]): 15 µM; Ki (Co(II)-loaded PfMetAP-II [1]): 3 µM; IC50 (Mn(II)-loaded PfMetAP-II [7]): 1000 µM; Ki (Mn(II)-loaded PfMetAP-II [7]): 440 µM; fold less potent (IC50) for Mn(II)-loaded than Co(II)-loaded PfMetAP-II (Mn(II)-loaded PfMetAP-II [7]; IC50 Mn(II)-loaded vs Co(II)-loaded PfMetAP-II): approximately 67 fold; IC50 (Co(II)-loaded EcMetAP-I [2]): 44 µM; Ki (Co(II)-loaded EcMetAP-I [2]): 8 µM; IC50 (Mn(II)-loaded EcMetAP-I [8]): 1000 µM; Ki (Mn(II)-loaded EcMetAP-I [8]): 750 µM; fold less potent (IC50) for Mn(II)-loaded than Co(II)-loaded EcMetAP-I (Mn(II)-loaded EcMetAP-I [8]; IC50 Mn(II)-loaded vs Co(II)-loaded EcMetAP-I): approximately 23 fold; Kd (Co(II)-loaded PfMetAP-II [3]): 2 ± 0.1 µM; Kd (Mn(II)-loaded PfMetAP-II [4]): 666 ± 10 µM; TΔS (Mn(II)-loaded PfMetAP-II [4]; [9]): 4.06 kcal/mol; Kd (Co(II)-loaded EcMetAP-I [5]): 10 ± 0.1 µM; Kd (Mn(II)-loaded EcMetAP-I [6]): 714 ± 10 µM |
